Measured values from patent publication US9956176B2, “Compositions and methods for treating ewing sarcoma” (priority 2014, dated 2018).
d = 2'-deoxy (DNA); m = 2'-O-methyl

Columns and labels:
RNA polymerase II = target: T1, RNA polymerase II (Homo sapiens, UniProt P24928); test: inhibition of FEZF1-AS1 transcription; assay type: cell-based
T1 construct: endogenous in cells; host or cells: Ewing sarcoma cells
Description: FEZF1-AS1 is located on human chromosome 7q31.32 on the positive strand and overlaps the first two exons of protein-coding gene, FEZF1, which lies on the opposite strand. To characterize this gene in Ewing sarcoma, we performed Northern blot analysis using different biotin-labelled probes that confirmed the 2.6 kb transcript was predominantly expressed in Ewing sarcoma. […] RNA-sequencing of two Ewing sarcoma cell lines, CHLA-9 and CHLA-10, identified multiple isoforms of the transcript, some of which included introns and/or extended beyond exon 7. CHLA-9 and CHLA-10 are Ewing sarcoma cell lines from the same patient. CHLA-9 is from the primary tumor and CHLA-10 is from the metastatic tumor. We validated some of the isoforms by PCR and Sanger sequencing. To confirm the annotation of FEZF1-AS1 as a non-coding RNA, we used the coding potential calculator algorithm that assigned a low score of −1.2 compared to scores of 5 and above for coding genes such as FLI1, and NR0B1. FEZF1-AS1 transcription was inhibited by alpha-amanitin but not by RNA Polymerase III inhibitor, thus confirming that RNA polymerase II transcribes the lncRNA. […] Thus, lncRNA FEZF1-AS1 is a highly expressed gene is Ewing sarcoma.

[1] = assay type: in vivo; conditions: once a week IV
Description: (§1) To complete the mouse efficacy and safety studies we injected NOG mice with 6×10^6 luciferase transfected human Acute Lymphoblastic Leukemia (REH cells). This special transgenic type of mouse has deletions in the gene encoding the interleukin 2 receptor γ (IL2Rγ) and has added genes expressing human iL3, GM-CSF and SCF. To prevent rejection of injected human leukemia cells, the NOG mice have a complete lack of B, T, and NK cells, and a deficiency of cytokine signaling. The mice were separated into six groups. Group 1 received only buffer treatment; group 2-untargeted, unloaded HPLN; group 3-untargeted, HPLN/Dox (2 mg Dox/kg); group 4-(targeted) anti-CD-19/HPLN/Dox (2 mg Dox/kg); group 5-Doxil (2 mg Dox/kg); and group 6-(free) doxorubicin (2 mg Dox/kg).
(§2) Upon injection of the leukemia cells, Xenogen camera images were done once per week and used to assess both tumor cell distribution and quantitative tumor burden. After 10 days post leukemia cell injection, our targeted nanoparticle drug (anti-CD-19/HPLN/Dox) or control particles or drugs, were administered to the mice, in once a week dosages. The amount of drug given was based on the active substance (doxorubicin), not on total nanoparticle mass in each formulation (except for group 2, these mice received an equivalent HPLN dose in unloaded form). […]

[2] = system: human Acute Lymphoblastic Leukemia (REH cells); test: REH-Luc leukemia xenograft, tumor burden by Xenogen camera; assay type: in vivo, mouse
Description: as §1, §2

FEZF1-AS1 = FEZF1-AS1 expression in A673 cells; assay type: cell-based, human

With alpha-amanitin as the molecule, how does the FEZF1-AS1 transcription (RNA polymerase II) read?
The FEZF1-AS1 transcription was “inhibited”.

Which “tolerability, acute toxic reactions” value [1] does the source give for COc1cccc2c1C(=O)c1c(O)c3c(c(O)c1C2=O)C[C@@](O)(C(=O)CO)C[C@@H]3O[C@H]1C[C@H](N)[C@H](O)[C@H](C)O1 [doxorubicin] here?
Its value is “lose weight and appeared sickly”.

And the “tumor growth / tumor reduction” value ([2]; 2 mg Dox/kg once a week from day 10, IV, FIG. 4)?
The value was “significant tumor reduction”.

And the “tumor size and burden” value ([2]; 2 mg Dox/kg, day 35, FIG. 8)?
The value was “markedly less”.

For “5-mG*mU*mG*mU*mG*T*G*T*G*T*C*T*G*C*T*mU*mG*mU*mU*mU-3′ (antisense GUGUGTGTGTCTGCTUGUUU; sugars from the 5' end m5 d10 m5, all phosphorothioate, methylation of C not given here) [FA7]”, which knockdown levels (FEZF1-AS1; A673, 48 hours) is on record?
Its knockdown levels is “about 50%”.

And the “FEZF1-AS1 levels reduced to” value (FEZF1-AS1; A673, nucleofection, 24 hours)?
The value was 80%.
